Measurements: US20220340633A1 (Adepthera LLC, priority 2016, published 2022)
Entries after “also recorded” stand apart in the source; their conditions may differ. Non-standard residues stand in square brackets, D forms with d. Residues, ends and D or L forms follow the SMILES beside them. *: point of attachment. Palmitoyl = CCCCCCCCCCCCCCCC(=O)*; AEEA = NCCOCCOCC(=O)O

Experiments:
[1] = system: primary human lymphatic endothelia cells (HLEC); test: HLEC survival in medium with 0.1% FBS, MTS assay; conditions: 30, 100, and 300 nM, 72 hrs
Experimental: (§1) The cells were cultured for 72 hrs, and cell viability was assayed with the MTS assay (Promega).

[2] = system: primary human lymphatic endothelia cells (HLEC); test: HLEC proliferation in medium with 2% FBS, MTS assay; conditions: 30, 100, and 300 nM, 72 hrs
Experimental: as §1

CLR/RAMP2 receptor = target: T1, CLR/RAMP2 receptor (Homo sapiens, UniProt O60895+Q16602); test: CLR/RAMP2 arrestin receptor activation assay (agonist); assay type: cell-based; conditions: for Emax: CHO-K1, read-out: CLR/RAMP 2 Max Activity % of positive control, CHO-K1 cells, % of positive control (ADM)
T1 construct: host or cells: CHO-K1 cells
T1 sequence (Q16602 23-461): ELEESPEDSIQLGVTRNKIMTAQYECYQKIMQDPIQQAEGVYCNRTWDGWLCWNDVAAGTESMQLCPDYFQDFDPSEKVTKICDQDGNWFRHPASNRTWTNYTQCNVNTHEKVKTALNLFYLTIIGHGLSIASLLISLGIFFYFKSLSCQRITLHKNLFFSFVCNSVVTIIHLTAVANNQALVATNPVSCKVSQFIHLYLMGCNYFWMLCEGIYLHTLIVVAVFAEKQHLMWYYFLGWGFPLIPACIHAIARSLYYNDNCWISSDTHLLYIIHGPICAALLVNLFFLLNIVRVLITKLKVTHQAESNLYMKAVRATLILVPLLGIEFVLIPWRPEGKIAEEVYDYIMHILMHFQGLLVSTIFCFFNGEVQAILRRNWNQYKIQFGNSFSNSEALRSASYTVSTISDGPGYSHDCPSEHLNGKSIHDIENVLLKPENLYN
T1 sequence (O60895 43-175): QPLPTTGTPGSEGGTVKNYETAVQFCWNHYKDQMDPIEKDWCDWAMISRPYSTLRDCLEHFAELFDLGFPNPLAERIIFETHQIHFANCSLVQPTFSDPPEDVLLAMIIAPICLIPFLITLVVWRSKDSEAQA
Experimental: (§2) Using a receptor activation assay, the dose-dependent stimulatory response of peptide agonists of the present invention on a CLR/RAMP1 receptor, a CLR/RAMP2, or a CLR/RAMP3 receptor complex was determined. A cell line carrying the recombinant CLR/RAMP1, CLR/RAMP2, or a CLR/RAMP3 receptor was employed in the assay. Peptide agonist activities were tested, in duplicate, at 10 different concentrations, starting with 1.0 μM and serially diluted 3-fold, in DMSO. […] The CLR/RAMP1 cAMP, CLR/RAMP2 arrestin assays, and CLR/RAMP3 cAMP (DiscoveRx, Fremont, Calif.) were used.

CLR/RAMP1 receptor [3] = target: T2, CLR/RAMP1 receptor (Homo sapiens, UniProt O60894+Q16602); test: CLR/RAMP1 cAMP receptor activation assay (agonist); assay type: cell-based; set-up: host or cells: 1321N1 cells; conditions: 1321-N1, read-out: CLR/RAMP 1 Max Activity % of positive control, 1321N1 cells; % of positive control (β-CGRP)
T2 sequence (Q16602 23-461): as the sequence (Q16602 23-461) above
T2 sequence (O60894 27-148): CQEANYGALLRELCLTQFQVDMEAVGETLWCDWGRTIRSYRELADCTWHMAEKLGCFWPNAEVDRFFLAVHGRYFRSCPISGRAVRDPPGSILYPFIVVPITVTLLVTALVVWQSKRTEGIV
Experimental: as §2

CLR/RAMP3 receptor [4] = target: T3, CLR/RAMP3 receptor (Homo sapiens, UniProt O60896+Q16602); test: CLR/RAMP3 cAMP receptor activation assay (agonist); assay type: cell-based; set-up: host or cells: CHO-K1 cells; conditions: CHO-K1, read-out: CLR/RAMP 3 Max Activity % of positive control
T3 sequence (Q16602 23-461): as the sequence (Q16602 23-461) above
T3 sequence (O60896 24-148): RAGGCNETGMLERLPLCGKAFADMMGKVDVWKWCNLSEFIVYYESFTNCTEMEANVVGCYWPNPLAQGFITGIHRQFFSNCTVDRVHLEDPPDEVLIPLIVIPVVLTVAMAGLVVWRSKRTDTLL
Experimental: as §2

CLR/RAMP1 receptor [5] = target: T2, CLR/RAMP1 receptor; conditions: CLR/RAMP1 versus CLR/RAMP2
Experimental: as §2
(§3) For the analysis of antagonistic activity, the synthetic analogs were pre-incubated with the cells before adding the reference ligand at its EC80.

CLR/RAMP3 receptor [6] = target: T3, CLR/RAMP3 receptor; test: cell-based
Experimental: as §2, §3

Question: For `CC[C@H](C)[C@H](NC(=O)[C@H](CCC(N)=O)NC(=O)[C@H](Cc1c[nH]cn1)NC(=O)[C@H](C)NC(=O)[C@H](CC(C)C)NC(=O)[C@H](CCCCN)NC(=O)[C@H](CCC(N)=O)NC(=O)[C@@H](NC(=O)[C@@H](NC(=O)[C@@H]1CSSC[C@H](NC(=O)CNC(=O)[C@H](Cc2ccccc2)NC(=O)[C@H](CO)NC(=O)[C@H](CCCNC(=N)N)NC(=O)[C@H](CC(C)C)NC(=O)CNC(=O)[C@H](CCC(N)=O)NC(=O)[C@H](Cc2ccccc2)NC(=O)[C@H](CC(N)=O)NC(=O)[C@H](CC(N)=O)NC(=O)[C@H](CCSC)NC(=O)[C@H](CO)NC(=O)[C@H](CCC(N)=O)NC(=O)[C@H](CCCNC(=N)N)NC(=O)[C@H](Cc2ccc(O)cc2)NC(C)=O)C(=O)N[C@@H](CCCNC(=N)N)C(=O)N[C@@H](Cc2ccccc2)C(=O)NCC(=O)N[C@@H]([C@@H](C)O)C(=O)N1)[C@@H](C)O)C(C)C)C(=O)N[C@@H](Cc1ccc(O)cc1)C(=O)N[C@@H](CCC(N)=O)C(=O)N[C@@H](Cc1ccccc1)C(=O)N[C@H](C(=O)N[C@@H](CC(=O)O)C(=O)N[C@@H](CCCCN)C(=O)N[C@@H](CC(=O)O)C(=O)N[C@@H](CCCCN)C(=O)N[C@@H](CC(=O)O)C(=O)N[C@@H](CC(N)=O)C(=O)N[C@H](C(=O)N[C@@H](C)C(=O)N1CCC[C@H]1C(=O)N[C@@H](CCCNC(=N)N)C(=O)N[C@@H](CO)C(=O)N[C@@H](CCCCN)C(=O)N[C@H](C(=O)N[C@@H](CO)C(=O)N1CCC[C@H]1C(=O)N[C@@H](CCC(N)=O)C(=O)NCC(=O)N[C@@H](Cc1ccc(O)cc1)C(N)=O)[C@@H](C)CC)C(C)C)[C@@H](C)O` [SEQ ID NO: 54, reference compound], which “HLEC survival (in words)” value [1] is on record?
Answer: minimal effects; also recorded: negligible effects

Question: And the “HLEC proliferation (in words)” value [2]?
Answer: minimal effects; also recorded: negligible effects

Question: What does the source list for `CCCCCCCCCCCCCCCC(=O)NCCCC[C@H](NC(=O)COCCOCCN)C(=O)NCC(=O)N[C@H]1CSSC[C@@H](C(=O)N[C@H](C(=O)N[C@H](C(=O)N[C@@H](CCC(N)=O)C(=O)N[C@@H](CCCCN)C(=O)N[C@@H](CC(C)C)C(=O)N[C@@H](C)C(=O)N[C@@H](Cc2c[nH]cn2)C(=O)N[C@@H](CCC(N)=O)C(=O)N[C@H](C(=O)N[C@@H](Cc2ccc(O)cc2)C(=O)N[C@@H](CCC(N)=O)C(=O)N[C@@H](Cc2ccccc2)C(=O)N[C@H](C(=O)N[C@@H](CC(=O)O)C(=O)N[C@@H](CCCCN)C(=O)N[C@@H](CC(=O)O)C(=O)N[C@H](C(=O)N[C@@H](C)C(=O)N2CCC[C@H]2C(=O)N[C@@H](CCCNC(=N)N)C(=O)N[C@@H](CO)C(=O)N[C@@H](CCCCN)C(=O)N[C@H](C(=O)N[C@@H](CO)C(=O)N2CCC[C@H]2C(=O)N[C@@H](CCC(N)=O)C(=O)NCC(=O)N[C@@H](Cc2ccc(O)cc2)C(N)=O)[C@@H](C)CC)C(C)C)[C@@H](C)O)[C@@H](C)CC)C(C)C)[C@@H](C)O)NC(=O)[C@H]([C@@H](C)O)NC(=O)CNC(=O)[C@H](Cc2ccccc2)NC(=O)[C@H](CCCNC(=N)N)NC1=O` [SEQ ID NO: 101]?
Answer: Emax (CLR/RAMP2 receptor): 74%; receptor specificity of agonist (CLR/RAMP2 receptor; CLR/RAMP2 versus CLR/RAMP1): CLR/RAMP2-specific; Emax (CLR/RAMP1 receptor [3]): 56%; Emax (CLR/RAMP3 receptor [4]): 129%

Question: For `CCCCCCCCCCCCCCCC(=O)NCCCC[C@H](NC(=O)COCCOCCN)C(=O)N[C@H](C(=O)N[C@@H](CCC(N)=O)C(=O)N[C@@H](CCCCN)C(=O)N[C@@H](CC(C)C)C(=O)N[C@@H](C)C(=O)N[C@@H](Cc1c[nH]cn1)C(=O)N[C@@H](CCC(N)=O)C(=O)N[C@H](C(=O)N[C@@H](Cc1ccc(O)cc1)C(=O)N[C@@H](CO)C(=O)N[C@@H](C)C(=O)N1CCC[C@H]1C(=O)N[C@H](C(=O)N[C@@H](CC(=O)O)C(=O)N1CCC[C@H]1C(=O)N[C@@H](CO)C(=O)N[C@@H](CO)C(=O)N1CCC[C@H]1C(=O)N[C@@H](Cc1c[nH]cn1)C(=O)N[C@@H](CO)C(=O)N[C@@H](Cc1ccc(O)cc1)C(N)=O)C(C)C)[C@@H](C)CC)C(C)C` [SEQ ID NO: 114], which “receptor specificity of antagonist” value (CLR/RAMP1 receptor [5]) is on record?
Answer: CLR/RAMP1-specific

Question: What about the IC50 (CLR/RAMP3 receptor [6]) of the same compound?
Answer: 0.8 to 9.2 nM

Question: `CCCCCCCCCCCCCCCC(=O)N[C@@H](CCCCN)C(=O)N[C@H](C(=O)N[C@@H](CCC(N)=O)C(=O)N[C@@H](CCCCN)C(=O)N[C@@H](CC(C)C)C(=O)N[C@@H](C)C(=O)N[C@@H](Cc1c[nH]cn1)C(=O)N[C@@H](CCC(N)=O)C(=O)N[C@H](C(=O)N[C@@H](CO)C(=O)N[C@@H](C)C(=O)N1CCC[C@H]1C(=O)N[C@H](C(=O)N[C@@H](CC(=O)O)C(=O)N1CCC[C@H]1C(=O)N[C@@H](CO)C(=O)N[C@@H](CO)C(=O)N1CCC[C@H]1C(=O)N[C@@H](Cc1c[nH]cn1)C(=O)N[C@@H](CO)C(=O)N[C@@H](Cc1ccc(O)cc1)C(N)=O)C(C)C)[C@@H](C)CC)C(C)C` [SEQ ID NO: 123] was tested. Which IC50 (CLR/RAMP3 receptor [6]) did it give?
Answer: 0.8 to 9.2 nM

Question: How did the IC50 (CLR/RAMP3 receptor [6]) turn out when `CCCCCCCCCCCCCCCC(=O)NCCCC[C@H](NC(=O)COCCOCCN)C(=O)N[C@H](C(=O)N[C@@H](CCC(N)=O)C(=O)N[C@@H](CCCCN)C(=O)N[C@@H](CC(C)C)C(=O)N[C@@H](C)C(=O)N[C@@H](Cc1c[nH]cn1)C(=O)N[C@@H](CCC(N)=O)C(=O)N[C@H](C(=O)N[C@@H](Cc1ccc(O)cc1)C(=O)N[C@@H](CCC(N)=O)C(=O)N[C@@H](Cc1ccccc1)C(=O)N[C@H](C(=O)N[C@@H](CC(=O)O)C(=O)N[C@@H](CCCCN)C(=O)N[C@@H](CC(=O)O)C(=O)N[C@@H](CO)C(=O)N[C@@H](C)C(=O)N1CCC[C@H]1C(=O)N[C@H](C(=O)N[C@@H](CC(=O)O)C(=O)N1CCC[C@H]1C(=O)N[C@@H](CO)C(=O)N[C@@H](CO)C(=O)N1CCC[C@H]1C(=O)N[C@@H](Cc1c[nH]cn1)C(=O)N[C@@H](CO)C(=O)N[C@@H](Cc1ccc(O)cc1)C(N)=O)C(C)C)[C@@H](C)O)[C@@H](C)CC)C(C)C` [SEQ ID NO: 112] (H-[AEEA]K(Palmitoyl)VQKLAHQIYQFTDKDSAPVDPSSPHSY-NH2) was run?
Answer: 0.8 to 9.2 nM

Question: `CC[C@H](C)[C@H](NC(=O)[C@H](CCC(N)=O)NC(=O)[C@H](Cc1c[nH]cn1)NC(=O)[C@H](C)NC(=O)[C@H](CC(C)C)NC(=O)[C@H](CCCCN)NC(=O)[C@H](CCC(N)=O)NC(=O)[C@@H](NC(=O)[C@@H](NC(=O)[C@@H]1CSSC[C@H](NC(=O)CNC(=O)[C@H](Cc2ccccc2)NC(C)=O)C(=O)N[C@@H](CCCNC(=N)N)C(=O)N[C@@H](Cc2ccccc2)C(=O)NCC(=O)N[C@@H]([C@@H](C)O)C(=O)N1)[C@@H](C)O)C(C)C)C(=O)N[C@@H](Cc1ccc(O)cc1)C(=O)N[C@@H](CCC(N)=O)C(=O)N[C@@H](Cc1ccccc1)C(=O)N[C@H](C(=O)N[C@@H](CC(=O)O)C(=O)N[C@@H](CCCCN)C(=O)N[C@@H](CC(=O)O)C(=O)N[C@@H](CCCCN)C(=O)N[C@@H](CC(=O)O)C(=O)N[C@@H](CC(N)=O)C(=O)N[C@H](C(=O)N[C@@H](C)C(=O)N1CCC[C@H]1C(=O)N[C@@H](CCCNC(=N)N)C(=O)N[C@@H](CO)C(=O)N[C@@H](CCCCN)C(=O)N[C@H](C(=O)N[C@@H](CO)C(=O)N1CCC[C@H]1C(=O)N[C@@H](CCC(N)=O)C(=O)NCC(=O)N[C@@H](Cc1ccc(O)cc1)C(N)=O)[C@@H](C)CC)C(C)C)[C@@H](C)O` [SEQ ID NO: 53, reference compound] was tested. Which Emax (CLR/RAMP2 receptor) did it give?
Answer: 102%

Question: What about the Emax (CLR/RAMP1 receptor [3]) of the same compound?
Answer: 69%

Question: And the “HLEC survival (in words)” value [1]?
Answer: minimal effects; also recorded: negligible effects

Question: And the “HLEC proliferation (in words)” value [2]?
Answer: minimal effects; also recorded: negligible effects

Question: How did the “receptor specificity of antagonist” value (CLR/RAMP1 receptor [5]) turn out when `CCCCCCCCCCCCCCCC(=O)N[C@@H](CCCCN)C(=O)N[C@H](C(=O)N[C@@H](CCC(N)=O)C(=O)N[C@@H](CCCCN)C(=O)N[C@@H](CC(C)C)C(=O)N[C@@H](C)C(=O)N[C@@H](Cc1c[nH]cn1)C(=O)N[C@@H](CCC(N)=O)C(=O)N[C@H](C(=O)N[C@@H](Cc1ccc(O)cc1)C(=O)N[C@@H](CCC(N)=O)C(=O)N[C@@H](Cc1ccccc1)C(=O)N[C@H](C(=O)N[C@@H](CC(=O)O)C(=O)N[C@@H](CCCCN)C(=O)N[C@@H](CC(=O)O)C(=O)N[C@H](C(=O)N[C@@H](C)C(=O)N1CCC[C@H]1C(=O)N[C@@H](CCCNC(=N)N)C(=O)N[C@@H](CO)C(=O)N[C@@H](CCCCN)C(=O)N[C@H](C(=O)N[C@@H](CO)C(=O)N1CCC[C@H]1C(=O)N[C@@H](CCC(N)=O)C(=O)NCC(=O)N[C@@H](Cc1ccc(O)cc1)C(N)=O)[C@@H](C)CC)C(C)C)[C@@H](C)O)[C@@H](C)CC)C(C)C` [SEQ ID NO: 119] was run?
Answer: CLR/RAMP2-specific

Question: What about the IC50 (CLR/RAMP3 receptor [6]) of the same compound?
Answer: 0.8 to 9.2 nM

Question: `CCCCCCCCCCCCCCCC(=O)NCCCC[C@H](NC(=O)COCCOCCN)C(=O)N[C@H](C(=O)N[C@@H](CCC(N)=O)C(=O)N[C@@H](CCCCN)C(=O)N[C@@H](CC(C)C)C(=O)N[C@@H](C)C(=O)N[C@@H](Cc1c[nH]cn1)C(=O)N[C@@H](CCC(N)=O)C(=O)N[C@H](C(=O)N[C@@H](Cc1ccc(O)cc1)C(=O)N[C@@H](CCC(N)=O)C(=O)N[C@@H](Cc1ccccc1)C(=O)N[C@H](C(=O)N[C@@H](CC(=O)O)C(=O)N[C@@H](CCCCN)C(=O)N[C@@H](CC(=O)O)C(=O)N[C@@H](CCCCN)C(=O)N[C@@H](CC(=O)O)C(=O)N[C@@H](CC(N)=O)C(=O)N[C@@H](CO)C(=O)N[C@@H](C)C(=O)N1CCC[C@H]1C(=O)N[C@H](C(=O)N[C@@H](CC(=O)O)C(=O)N1CCC[C@H]1C(=O)N[C@@H](CO)C(=O)N[C@@H](CO)C(=O)N1CCC[C@H]1C(=O)N[C@@H](Cc1c[nH]cn1)C(=O)N[C@@H](CO)C(=O)N[C@@H](Cc1ccc(O)cc1)C(N)=O)C(C)C)[C@@H](C)O)[C@@H](C)CC)C(C)C` [SEQ ID NO: 78] (H-[AEEA]K(Palmitoyl)VQKLAHQIYQFTDKDKDNSAPVDPSSPHSY-NH2) was tested. Which IC50 (CLR/RAMP3 receptor [6]) did it give?
Answer: 0.8 to 9.2 nM
